Legend:
[1] = tested on: human lung cancer strain NCI-H441; assay: NCI-H441 cell proliferation inhibitory activity (CellTiter-Glo, 4 days); type: cell-based; settings: NCI-H441 cells, 4 days, read-out: NCl-H441 IC50
How it was run: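 Readout: […] after the ATP-based reagent. Compound: serial dilutions in dimethyl sulfoxide.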

HRAS wild-type protein = HRAS wild-type protein (Homo sapiens, UniProt P01112); assay: Binding to HRAS by surface plasmon resonance (SPR), KD and KD ratio to KRAS; settings: ratio of KD for HRAS wild-type protein to KD for KRAS
How it was run: (§1)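 Affinity is measured by surface plasmon resonance at 30°C against captured, GDP-loaded RAS carrying a biotinylated Avi tag. Compounds are titrated by single-cycle kinetics, and KD comes from a 1:1 fit.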

[2] = target: GDP-bound KRAS wild-type protein (Homo sapiens, UniProt P01116); assay: Binding to KRAS by surface plasmon resonance (SPR), dissociation constant KD; settings: Single Cycle Kinetics
How it was run: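 SPR, 30°C: Avi-biotin RAS·GDP captured via Biotin CAPture (~100–300 RU); running buffer HBS pH 7.4, 1 mM DTT, 10 mM MgCl2, 0.01% Tween 20, 10 µM GDP, 4% DMSO. Single-cycle kinetics, 100 µL/min, 75 s injections; 1:1 model → KD.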

[3] = target: GDP-bound NRAS wild-type protein (Homo sapiens, UniProt P01111); assay: Binding to NRAS by surface plasmon resonance (SPR), KD and KD ratio to KRAS; settings: ratio of KD for GDP-bound NRAS wild-type protein to KD for KRAS
How it was run: as §1

Chain of HRAS wild-type protein (P01112 whole entry): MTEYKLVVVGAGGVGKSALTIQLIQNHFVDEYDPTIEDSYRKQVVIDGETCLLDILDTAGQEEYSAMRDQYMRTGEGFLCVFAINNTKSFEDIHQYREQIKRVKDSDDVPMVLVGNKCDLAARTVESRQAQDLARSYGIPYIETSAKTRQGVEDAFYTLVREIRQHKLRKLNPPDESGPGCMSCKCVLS
Chain of GDP-bound NRAS wild-type protein (P01111 whole entry): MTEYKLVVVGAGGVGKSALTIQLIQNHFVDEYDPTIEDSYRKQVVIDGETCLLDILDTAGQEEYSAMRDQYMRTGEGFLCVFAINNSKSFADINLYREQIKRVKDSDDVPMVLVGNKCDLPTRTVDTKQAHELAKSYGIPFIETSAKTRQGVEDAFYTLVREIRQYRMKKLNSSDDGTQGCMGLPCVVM
Chain of GDP-bound KRAS wild-type protein (P01116 1-188 isoform P01116-2): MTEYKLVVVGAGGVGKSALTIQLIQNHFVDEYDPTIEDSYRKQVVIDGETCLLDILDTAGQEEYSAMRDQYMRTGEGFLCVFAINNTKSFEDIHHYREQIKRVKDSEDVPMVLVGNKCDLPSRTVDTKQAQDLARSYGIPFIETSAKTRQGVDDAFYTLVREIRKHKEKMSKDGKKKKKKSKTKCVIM

| SMILES | IC50 [1] [nM] | HRAS /KRAS (HRAS wild-type protein) | Kd [2] [nM] | NRAS /KRAS [3] |
| --- | --- | --- | --- | --- |
| CCCOC[C@H]1C(=O)N[C@@H](C2CCCC2)C(=O)N(CCC)CC(=O)N(C)[C@H]2C/C=C\CCN(C2=O)[C@@H](Cc2ccc(C(F)F)cc2)C(=O)N(C)CC(=O)N[C@@H](CCc2cc(F)c(C(F)(F)F)c(F)c2)C(=O)N2C[C@H](OC(C)C)C[C@H]2C(=O)N(C)C2(CCC2)C(=O)N(C)[C@@H](C(CC)CC)C(=O)N(C)[C@H](C(=O)N(C)C)CC(=O)N1C [PP3487] | 39.8 | A (a compound having 10 or more and less than 20 is denoted as A) | 0.96 | A (a compound having 10 or more and less than 20 is denoted as A) |
| CCCOC[C@H]1C(=O)N[C@@H]([C@@H](C)OCCC)C(=O)N(CCC)CC(=O)N(C)[C@H]2C/C=C\CCN(C2=O)[C@@H](Cc2ccc(C(F)F)cc2)C(=O)N(C)CC(=O)N[C@@H](CCc2cc(F)c(C(F)(F)F)c(F)c2)C(=O)N2C[C@H](OC(C)C)C[C@H]2C(=O)N(C)C2(CCC2)C(=O)N(C)[C@@H](C(CC)CC)C(=O)N(C)[C@H](C(=O)N(C)C)CC(=O)N1C [PP3488] | 30.7 | A (a compound having 10 or more and less than 20 is denoted as A) | 0.71 | A (a compound having 10 or more and less than 20 is denoted as A) |
| CCCOC[C@H]1C(=O)N[C@@H](C2CCCC2)C(=O)N(CCC)CC(=O)N(C)[C@H]2C/C=C\CCN(C2=O)[C@@H](Cc2ccc(C(F)F)cc2)C(=O)N(C)CC(=O)N[C@@H](CCc2ccc(C(F)(F)F)c(Cl)c2)C(=O)N2C[C@H](OC(C)C)C[C@H]2C(=O)N(C)C2(CCC2)C(=O)N(C)[C@@H](C(CC)CC)C(=O)N(C)[C@H](C(=O)N(C)C)CC(=O)N1C [PP3489] | 45 | A (a compound having 10 or more and less than 20 is denoted as A) | 1.3 | AA (a compound having 20 or more is denoted as AA) |
| C#CCN1CC(=O)N(C)[C@H]2C/C=C\CCN(C2=O)[C@@H](Cc2ccc(C(F)F)cc2)C(=O)N(C)CC(=O)N[C@@H](CCc2cc(F)c(C(F)(F)F)c(F)c2)C(=O)N2C[C@H](OC(C)C)C[C@H]2C(=O)N(C)C2(CCC2)C(=O)N(C)[C@@H](C(CC)CC)C(=O)N(C)[C@H](C(=O)N(C)C)CC(=O)N(C)[C@@H](COCCC)C(=O)N[C@@H]([C@@H](C)CC)C1=O [PP3490] | 23.7 | A (a compound having 10 or more and less than 20 is denoted as A) | 0.3 | A (a compound having 10 or more and less than 20 is denoted as A) |
| CCCOC[C@H]1C(=O)N[C@@H]([C@H](C)CC)C(=O)N(CCC)CC(=O)N(C)[C@H]2C/C=C\CCN(C2=O)[C@@H](Cc2ccc(C(F)F)cc2)C(=O)N(C)CC(=O)N[C@@H](CCc2cc(F)c(C(F)(F)F)c(F)c2)C(=O)N2C[C@H](OC(C)C)C[C@H]2C(=O)N(C)C2(CCC2)C(=O)N(C)[C@@H](C(CC)CC)C(=O)N(C)[C@H](C(=O)N(C)C)CC(=O)N1C [PP3492] | 89.4 | A (a compound having 10 or more and less than 20 is denoted as A) | 4.2 | A (a compound having 10 or more and less than 20 is denoted as A) |
| C=CCN1CC(=O)N(C)[C@H]2C/C=C\CCN(C2=O)[C@@H](Cc2ccc(C(F)F)cc2)C(=O)N(C)CC(=O)N[C@@H](CCc2ccc(C(F)(F)F)cc2Cl)C(=O)N2C[C@H](OC(C)C)C[C@H]2C(=O)N(C)C2(CCC2)C(=O)N(C)[C@@H](C(CC)CC)C(=O)N(C)[C@H](C(=O)N(C)C)CC(=O)N(C)[C@@H](CC2CC2)C(=O)N[C@@H]([C@@H](C)OCCC)C1=O [PP3493] | 32.1 | A (a compound having 10 or more and less than 20 is denoted as A) | 1 | AA (a compound having 20 or more is denoted as AA) |
| C#CCN1CC(=O)N(C)[C@H]2C/C=C\CCN(C2=O)[C@@H](Cc2ccc(C(F)F)cc2)C(=O)N(C)CC(=O)N[C@@H](CCc2ccc(C(F)(F)F)cc2Cl)C(=O)N2C[C@H](OC(C)C)C[C@H]2C(=O)N(C)C2(CCC2)C(=O)N(C)[C@@H](C(CC)CC)C(=O)N(C)[C@H](C(=O)N(C)C)CC(=O)N(C)[C@@H](CC(C)C)C(=O)N[C@@H]([C@@H](C)CC)C1=O [PP3495] | 37.9 | A (a compound having 10 or more and less than 20 is denoted as A) | 0.72 | AA (a compound having 20 or more is denoted as AA) |
| C#CCN1CC(=O)N(C)[C@H]2C/C=C\CCN(C2=O)[C@@H](Cc2ccc(C(F)F)cc2)C(=O)N(C)CC(=O)N[C@@H](CCc2cc(F)c(C(F)(F)F)c(F)c2)C(=O)N2C[C@H](OC(C)C)C[C@H]2C(=O)N(C)C2(CCC2)C(=O)N(C)[C@@H](C(CC)CC)C(=O)N(C)[C@H](C(=O)N(C)C)CC(=O)N(C)[C@@H](CC(F)(F)F)C(=O)N[C@@H](C(C)C)C1=O [PP3496] | 11.6 | A (a compound having 10 or more and less than 20 is denoted as A) | 0.43 | A (a compound having 10 or more and less than 20 is denoted as A) |
| CCCN1CC(=O)N(C)[C@H]2C/C=C\CCN(C2=O)[C@@H](Cc2ccc(C(F)F)cc2)C(=O)N(C)CC(=O)N[C@@H](CCc2cc(F)c(C(F)(F)F)c(F)c2)C(=O)N2C[C@H](OC(C)C)C[C@H]2C(=O)N(C)C2(CCC2)C(=O)N(C)[C@@H](C(CC)CC)C(=O)N(C)[C@H](C(=O)N(C)C)CC(=O)N(C)[C@@H](CC(F)F)C(=O)N[C@@H](C2CCCC2)C1=O [PP3497] | 21.2 | A (a compound having 10 or more and less than 20 is denoted as A) | 0.74 | A (a compound having 10 or more and less than 20 is denoted as A) |
| CCCN1CC(=O)N(C)[C@H]2C/C=C\CCN(C2=O)[C@@H](Cc2ccc(C(F)F)cc2)C(=O)N(C)CC(=O)N[C@@H](CCc2cc(F)c(C(F)(F)F)c(F)c2)C(=O)N2C[C@H](OC(C)C)C[C@H]2C(=O)N(C)C2(CCC2)C(=O)N(C)[C@@H](C(CC)CC)C(=O)N(C)[C@H](C(=O)N(C)C)CC(=O)N(C)[C@@H](COCC)C(=O)N[C@@H](C2CCCC2)C1=O [PP3498] | 24.7 | A (a compound having 10 or more and less than 20 is denoted as A) | 0.94 | A (a compound having 10 or more and less than 20 is denoted as A) |
| CCC[C@H]1C(=O)N[C@@H](C2CCCC2)C(=O)N(C)CC(=O)N(C)[C@H]2C/C=C\CCN(C2=O)[C@@H](Cc2ccc(C(F)F)cc2)C(=O)N(C)CC(=O)N[C@@H](CCc2cc(F)c(C(F)(F)F)c(OC)c2)C(=O)N2C[C@H](OC(C)C)C[C@H]2C(=O)N(C)C2(CCC2)C(=O)N(C)[C@@H](C(CC)CC)C(=O)N(C)[C@H](C(=O)N(C)C)CC(=O)N1C [PP3499] | 6.2 | B (a compound having 3 or more and less than 10 is denoted as B) | 0.083 | A (a compound having 10 or more and less than 20 is denoted as A) |
| CCc1cc(CC[C@@H]2NC(=O)CN(C)C(=O)[C@H](Cc3ccc(C(F)F)cc3)N3CC/C=C\C[C@@H](C3=O)N(C)C(=O)CN(C)C(=O)[C@H]([C@@H](C)OC)NC(=O)[C@H](CC)N(C)C(=O)C[C@@H](C(=O)N(C)C)N(C)C(=O)[C@H](C(CC)CC)N(C)C(=O)C3(CCC3)N(C)C(=O)[C@@H]3C[C@@H](OC(C)C)CN3C2=O)ccc1C(F)(F)F [PP3500] | 12.2 | A (a compound having 10 or more and less than 20 is denoted as A) | 0.31 | A (a compound having 10 or more and less than 20 is denoted as A) |
| CCCOC[C@H]1C(=O)N[C@@H](C2CCCC2)C(=O)N(CCC)CC(=O)N(C)[C@H]2C/C=C\CCN(C2=O)[C@@H](Cc2ccc(C)cc2)C(=O)N(C)CC(=O)N[C@@H](CCc2ccc(Cl)c(C(F)(F)F)c2)C(=O)N2C[C@H](OC(C)C)C[C@H]2C(=O)N(C)C2(CCC2)C(=O)N(C)[C@@H](C(CC)CC)C(=O)N(C)[C@H](C(=O)N(C)C)CC(=O)N1C [PP3501] | 102 | A (a compound having 10 or more and less than 20 is denoted as A) | 1.1 | AA (a compound having 20 or more is denoted as AA) |
| CCCOC[C@H]1C(=O)N[C@@H]([C@@H](C)CC)C(=O)N(CCC)CC(=O)N(C)[C@H]2C/C=C\CCN(C2=O)[C@@H](Cc2ccc(C(F)F)cc2)C(=O)N(C)CC(=O)N[C@@H](CCc2cc(F)c(C(F)(F)F)c(F)c2)C(=O)N2C[C@H](OC3CCC3)C[C@H]2C(=O)N(C)C2(CCC2)C(=O)N(C)[C@@H](C(CC)CC)C(=O)N(C)[C@H](C(=O)N(C)C)CC(=O)N1C [PP3502] | 22.4 | A (a compound having 10 or more and less than 20 is denoted as A) | 0.5 | AA (a compound having 20 or more is denoted as AA) |

Source: patent EP4603105A1, “PHARMACEUTICAL COMPOSITION CONTAINING CYCLIC COMPOUND HAVING SELECTIVE KRAS INHIBITORY EFFECT AGAINST HRAS AND NRAS” (CHUGAI SEIYAKU KABUSHIKI KAISHA, priority 2022, dated 2024)
